From patent US20190060384A1, “COMPOSITION FOR TREATMENT OR PREVENTION OF LUNG CANCER AND A METHOD THEREFORE” (priority 2017, published 2019)

Assays:
[1] = mouse, in vivo, po
Excerpt: (§1) Day 28; mortality, clinical symptoms, change in body weight, autopsy findings, hematological (14 items; Table 18) and hematochemical (20 items; Table 19) changes, histopathological changes (23 organs: brain cerebrum, cerebellum and bulbar, heart, thymus, lung, testis, epididymis, kidney, adrenal gland, spleen, liver, pancreas, alimentary tract esophagus, fundic portion, pyloric portion, duodenum, jejunum, ileum, cecum, colon and rectum, submandibular lymph node), and changes in content of liver lipid peroxidation and antioxidant defense system glutathione (GSH), and catalase (CAT) and superoxide dismutase (SOD) activities.

[2] = mouse, in vivo, po; remark: listed apart in the source
Excerpt: as §1

[3] = mouse, in vivo, po; remark: listed apart in the source
Excerpt: as §1

[4] = male, ICR, mouse, in vivo, po, 28 days
Excerpt: as §1

[5] = male, ICR, mouse, in vivo, po, 28 days; remark: listed apart in the source
Excerpt: as §1

[6] = system: liver lipid peroxidation, GSH, CAT, SOD; conditions: mouse, in vivo, po
Excerpt: as §1

[7] = system: NCI-H520 cells; experiment: MTT cytotoxicity (cell viability)
Excerpt: Further, in order to observe the effects on tumor-related cachexia, a change in periovarian fat pad weight and a change in serum IL-6 content were observed, the changes in thickness of periovarian fat pad and diameter of adipocytes were each histopathologically observed, and in a tumor mass formed, the immunoreactivities of cleaved caspase-3 and poly(ADPribose) polymerase (PARP) as apoptotic markers, nitrotyrosine (NT) as an inducible nitric oxide synthases (iNOS)-related oxidative stress marker, 4-hydroxynonenal (4-HNE) as a lipid peroxidation marker, CD-31 and Ki-67 as angiogenic and cell proliferation markers, cyclooxygenase-2 (COX-2) as an inflammatory and angiogenic factor, and iNOS and TNF-α as cytokines related to immune activity were each observed by avidin-biotin-peroxidase (ABC)-based immunohistochemical methods.

[8] = male, ICR (CrljOri:CD1[ICR]), 28 day

COc1cc2ncnc(Nc3ccc(F)c(Cl)c3)c2cc1OCCCN1CCOCC1 [Gefitinib, gefitinib]
Clinical signs: Any abnormal signs [1, 8]: 0/7 (0%) | Clinical signs: Normal appearance [1, 8]: 7/7 (100%) | Mortality, At termination (at end of 28 days of administration) [1, 8]: 0 | Mortality, Total [1, 8]: 0/7 (0%) | Body weight gain, Day 0~Day 14 [1]: 6.53 ± 0.65 | Body weight gain, Day 0~Day 28 [1]: 3.26 ± 0.57b | Body weight gain, Day 14~Day 27 [1]: 1.80 ± 0.62 | BASO [2]: 1.11 ± 0.21% | EOS [2]: 0.36 ± 0.24% | HCT [2]: 34.06 ± 2.18a % | HGB [2]: 14.87 ± 0.97a g/dl | LYM [2]: 90.22 ± 0.91c % | MCH [2]: 21.01 ± 1.93 pg | MCHC [2]: 42.31 ± 4.13 g/dL | MCV [2]: 49.81 ± 3.97 fL | MONO [2]: 3.59 ± 0.83a % | NEU [2]: 2.95 ± 0.87c % | PLT [2]: 760.00 ± 143.30 K/μL | RBC [2]: 6.30 ± 0.35c M/μL | RET [2]: 0.43 ± 0.37 ea/1000 | WBC [2]: 7.50 ± 0.49e K/μL | ALB [3]: 1.39 ± 0.25a g/dL | ALP [3]: 107.00 ± 22.41 IU/L | ALT [3]: 215.00 ± 33.87d IU/L | AST [3]: 29.014 ± 23.57d IU/L | BIL [3]: 0.14 ± 0.05 mg/dL | BUN [3]: 18.19 ± 0.89 mg/dL | CRE [3]: 0.39 ± 0.18 mg/dL | GLU [3]: 92.43 ± 7.93 mg/dL | Globulin [3]: 3.73 ± 0.39a g/dL | K [3]: 9.97 ± 0.25 mmol/L | PRO [3]: 5.11 ± 0.19 g/dL | TG [3]: 195.71 ± 47.00 mg/dL | Autopsy: Liver Discolorization [4]: 7/7 | Autopsy: Liver Discolorization 1+ [4]: 0/7 | Autopsy: Liver Discolorization 2+ [4]: 1/7 | Autopsy: Liver Discolorization 3+ [4]: 6/7 | Autopsy: Liver Normal [4]: 0/7 | Autopsy: Lung Congestion [4]: 2/7 | Autopsy: Lung Congestion 1+ [4]: 2/7 | Autopsy: Lung Normal [4]: 5/7 | Autopsy: Lymph nodes Hypertrophy [4]: 7/7 | Autopsy: Lymph nodes Hypertrophy 1+ [4]: 0/7 | Autopsy: Lymph nodes Hypertrophy 2+ [4]: 4/7 | Autopsy: Lymph nodes Hypertrophy 3+ [4]: 3/7 | Autopsy: Lymph nodes Normal [4]: 0/7 | Autopsy: Others Normal [4]: 7/7 | Autopsy: Spleen Hypertrophy [4]: 7/7 | Autopsy: Spleen Hypertrophy 1+ [4]: 0/7 | Autopsy: Spleen Hypertrophy 2+ [4]: 4/7 | Autopsy: Spleen Hypertrophy 3+ [4]: 3/7 | Autopsy: Spleen Normal [4]: 0/7 | Histopathology: Fundus Normal [5]: 5/7 | Histopathology: Fundus fCV 1+ (local cysts) [5]: 2/7 | Histopathology: Liver IF 1+ (inflammatory cell infiltration) [5]: 0/7 | Histopathology: Liver IF-FN 1+ (infiltration with local necrosis) [5]: 0/7 | Histopathology: Liver IF-FN 2+ [5]: 1/7 | Histopathology: Liver IF-FN 3+ [5]: 6/7 | Histopathology: Liver Normal [5]: 0/7 | Histopathology: Lung CG 1+ (hyperemia) [5]: 1/7 | Histopathology: Lung Normal [5]: 6/7 | Histopathology: Lymph nodes Normal [5]: 0/7 | Histopathology: Lymph nodes dHP 1+ (diffused lymphocyte hyperplasia) [5]: 0/7 | Histopathology: Lymph nodes dHP 2+ [5]: 4/7 | Histopathology: Lymph nodes dHP 3+ [5]: 3/7 | Histopathology: Others Normal [5]: 7/7 | Histopathology: Spleen Normal [5]: 0/7 | Histopathology: Spleen rHP 1+ (red pulp lymphocyte hyperplasia) [5]: 0/7 | Histopathology: Spleen rHP 2+ [5]: 3/7 | Histopathology: Spleen rHP 3+ [5]: 4/7 | change in SOD activity in the liver tissue [6]: −81.18% | change in content of GSH in the liver tissue [6]: −69.14% | change in liver lipid peroxidation [6]: 129.64% | change in the viability of NCI-H520 cells vs vehicle control ([7]; gefitinib 0.001 μM): −3.29% | change in the viability of NCI-H520 cells vs vehicle control ([7]; gefitinib 0.01 μM): −7.47% | change in the viability of NCI-H520 cells vs vehicle control ([7]; gefitinib 0.1 μM): −17.73% | change in the viability of NCI-H520 cells vs vehicle control ([7]; gefitinib 1 μM): −29.55% | change in the viability of NCI-H520 cells vs vehicle control ([7]; gefitinib 5 μM): −53.53% | change in the viability of NCI-H520 cells vs vehicle control ([7]; gefitinib 10 μM): −62.71% | change in the viability of NCI-H520 cells vs vehicle control ([7]; gefitinib 50 μM): −71.11%
